Assay results as given in ChEMBL document CHEMBL1201862, “PubChem BioAssay data set” (2004).
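Method: 48-hour compound exposure of cells in 96-well plates, five concentrations, linear interpolation of endpoints. GI50 marks 50% less growth.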 The source made the active and inactive calls. Rule as the data show it: active = GI50 up to about 1.1 µM and inactive = higher.

Key:
Assay in all cases: NCI tumour cell line growth inhibition, 48 h
[1] = tested on: 786-0
[2] = tested on: A498
[3] = tested on: A549
[4] = tested on: ACHN
[5] = tested on: BT-549
[6] = tested on: CAKI-1
[7] = tested on: CCRF-CEM
[8] = tested on: COLO 205
[9] = tested on: DU-145
[10] = tested on: EKVX
[11] = tested on: HCC 2998
[12] = tested on: HCT-116
[13] = tested on: HCT-15
[14] = tested on: HL-60
[15] = tested on: HOP-62
[16] = tested on: HOP-92
[17] = tested on: Hs-578T
[18] = tested on: IGROV-1
[19] = tested on: K562
[20] = tested on: KM12
[21] = tested on: LOX IMVI
[22] = tested on: M14
[23] = tested on: MCF7
[24] = tested on: MDA-MB-231
[25] = tested on: MDA-MB-435
[26] = tested on: MDA-N
[27] = tested on: MOLT-4
[28] = tested on: Malme-3M
[29] = tested on: NCI-H23
[30] = tested on: NCI-H460
[31] = tested on: NCI-H522
[32] = tested on: OVCAR-3
[33] = tested on: OVCAR-4
[34] = tested on: OVCAR-5
[35] = tested on: PC-3
[36] = tested on: RPMI-8226
[37] = tested on: RXF 393
[38] = tested on: SF-268
[39] = tested on: SF-295
[40] = tested on: SF-539
[41] = tested on: SK-MEL-28
[42] = tested on: SK-MEL-2
[43] = tested on: SK-MEL-5
[44] = tested on: SK-OV-3
[45] = tested on: SN12C
[46] = tested on: SNB-19
[47] = tested on: SNB-75
[48] = tested on: SR
[49] = tested on: SW-620
[50] = tested on: T47D
[51] = tested on: TK-10
[52] = tested on: U-251
[53] = tested on: UACC-257
[54] = tested on: UACC-62
[55] = tested on: UO-31
[56] = tested on: HT-29
[57] = tested on: NCI-H226
[58] = tested on: NCI/ADR-RES
[59] = tested on: OVCAR-8

Cc1cccc(C(C)C)c1NC(=O)C(=O)CC(=O)c1sc(Nc2ccccc2Cl)nc1C
GI50 [1]: 32.8 µM (inactive)
GI50 [2]: > 100 µM (inactive)
GI50 [3]: 31.4 µM (inactive)
GI50 [4]: 51.4 µM (inactive)
GI50 [5]: 32.7 µM (inactive)
GI50 [6]: 85.3 µM (inactive)
GI50 [7]: 30.3 µM (inactive)
GI50 [8]: 29.9 µM (inactive)
GI50 [9]: 71.4 µM (inactive)
GI50 [10]: 52.2 µM (inactive)
GI50 [11]: 11.6 µM (inactive)
GI50 [12]: 8.79 µM (inactive)
GI50 [13]: 30.9 µM
GI50 [14]: 16.1 µM (inactive)
GI50 [15]: > 100 µM (inactive)
GI50 [16]: 10.4 µM (inactive)
GI50 [17]: 21.9 µM (inactive)
GI50 [18]: 46.3 µM (inactive)
GI50 [19]: > 10 µM (inactive)
GI50 [20]: 23.1 µM (inactive)
GI50 [21]: 31.8 µM (inactive)
GI50 [22]: 19.5 µM (inactive)
GI50 [23]: 10.3 µM (inactive)
GI50 [24]: 41 µM (inactive)
GI50 [25]: 7.26 µM (inactive)
GI50 [26]: 9.79 µM (inactive)
GI50 [27]: 25.6 µM (inactive)
GI50 [28]: > 100 µM (inactive)
GI50 [29]: 35 µM (inactive)
GI50 [30]: 22.1 µM (inactive)
GI50 [31]: 40.5 µM (inactive)
GI50 [32]: 32 µM (inactive)
GI50 [33]: 83.4 µM (inactive)
GI50 [34]: > 100 µM (inactive)
GI50 [35]: 22.4 µM (inactive)
GI50 [36]: 13.3 µM (inactive)
GI50 [37]: 40.6 µM (inactive)
GI50 [38]: 58.2 µM (inactive)
GI50 [39]: 12.9 µM (inactive)
GI50 [40]: 4 µM (inactive)
GI50 [41]: > 100 µM (inactive)
GI50 [42]: 12.8 µM (inactive)
GI50 [43]: 13.5 µM (inactive)
GI50 [44]: 20.7 µM (inactive)
GI50 [45]: 64.9 µM (inactive)
GI50 [46]: 56.4 µM (inactive)
GI50 [47]: 21.7 µM (inactive)
GI50 [48]: 18.2 µM (inactive)
GI50 [49]: 35.2 µM (inactive)
GI50 [50]: 35.8 µM (inactive)
GI50 [51]: 90.2 µM (inactive)
GI50 [52]: 23.1 µM (inactive)
GI50 [53]: 54.5 µM (inactive)
GI50 [54]: 42.4 µM (inactive)
GI50 [55]: 18.9 µM (inactive)

CCc1c(CN)c(CC)c(CNC2=NCCN2)c(CC)c1CNC1=NCCN1
GI50 [1]: > 100 µM (inactive)
GI50 [2]: > 100 µM (inactive)
GI50 [3]: > 100 µM (inactive)
GI50 [4]: > 100 µM (inactive)
GI50 [5]: > 100 µM (inactive)
GI50 [6]: > 100 µM (inactive)
GI50 [7]: > 100 µM (inactive)
GI50 [8]: > 100 µM (inactive)
GI50 [9]: > 100 µM (inactive)
GI50 [10]: > 100 µM (inactive)
GI50 [11]: > 100 µM (inactive)
GI50 [12]: > 100 µM (inactive)
GI50 [13]: > 100 µM
GI50 [15]: > 100 µM (inactive)
GI50 [16]: > 100 µM (inactive)
GI50 [56]: > 100 µM (inactive)
GI50 [17]: > 100 µM (inactive)
GI50 [18]: > 100 µM (inactive)
GI50 [19]: > 100 µM (inactive)
GI50 [20]: > 100 µM (inactive)
GI50 [22]: > 100 µM (inactive)
GI50 [23]: > 100 µM (inactive)
GI50 [25]: > 100 µM (inactive)
GI50 [26]: > 100 µM (inactive)
GI50 [27]: > 100 µM (inactive)
GI50 [28]: > 100 µM (inactive)
GI50 [57]: > 100 µM (inactive)
GI50 [29]: > 100 µM (inactive)
GI50 [30]: > 100 µM (inactive)
GI50 [31]: > 100 µM (inactive)
GI50 [58]: > 100 µM (inactive)
GI50 [32]: > 100 µM (inactive)
GI50 [33]: > 100 µM (inactive)
GI50 [34]: > 100 µM (inactive)
GI50 [59]: > 100 µM (inactive)
GI50 [35]: > 100 µM (inactive)
GI50 [36]: > 100 µM (inactive)
GI50 [37]: > 100 µM (inactive)
GI50 [38]: > 100 µM (inactive)
GI50 [39]: > 100 µM (inactive)
GI50 [40]: > 100 µM (inactive)
GI50 [41]: > 100 µM (inactive)
GI50 [42]: > 100 µM (inactive)
GI50 [43]: > 100 µM (inactive)
GI50 [44]: > 100 µM (inactive)
GI50 [45]: > 100 µM (inactive)
GI50 [46]: > 100 µM (inactive)
GI50 [47]: > 100 µM (inactive)
GI50 [48]: > 100 µM (inactive)
GI50 [49]: > 100 µM (inactive)
GI50 [50]: > 100 µM (inactive)
GI50 [51]: > 100 µM (inactive)
GI50 [52]: > 100 µM (inactive)
GI50 [53]: > 100 µM (inactive)
GI50 [54]: > 100 µM (inactive)
GI50 [55]: > 100 µM (inactive)

CNc1nncc2[nH]cnc12
GI50 [1]: > 100 µM (inactive)
GI50 [2]: > 100 µM (inactive)
GI50 [4]: > 100 µM (inactive)
GI50 [5]: > 100 µM (inactive)
GI50 [6]: > 100 µM (inactive)
GI50 [7]: > 100 µM (inactive)
GI50 [8]: > 100 µM (inactive)
GI50 [9]: > 100 µM (inactive)
GI50 [10]: > 100 µM (inactive)
GI50 [12]: > 100 µM (inactive)
GI50 [13]: > 100 µM
GI50 [14]: 32.4 µM (inactive)
GI50 [16]: > 100 µM (inactive)
GI50 [56]: > 100 µM (inactive)
GI50 [17]: > 100 µM (inactive)
GI50 [18]: > 100 µM (inactive)
GI50 [20]: > 100 µM (inactive)
GI50 [21]: > 100 µM (inactive)
GI50 [23]: > 100 µM (inactive)
GI50 [24]: > 100 µM (inactive)
GI50 [25]: > 100 µM (inactive)
GI50 [26]: > 100 µM (inactive)
GI50 [27]: > 100 µM (inactive)
GI50 [59]: > 100 µM (inactive)
GI50 [36]: > 100 µM (inactive)
GI50 [37]: > 100 µM (inactive)
GI50 [38]: > 100 µM (inactive)
GI50 [41]: > 100 µM (inactive)
GI50 [43]: > 100 µM (inactive)
GI50 [44]: > 100 µM (inactive)
GI50 [45]: > 100 µM (inactive)
GI50 [46]: > 100 µM (inactive)
GI50 [47]: > 100 µM (inactive)
GI50 [49]: > 100 µM (inactive)
GI50 [50]: > 100 µM (inactive)
GI50 [51]: > 100 µM (inactive)
GI50 [52]: > 100 µM (inactive)
GI50 [53]: > 100 µM (inactive)
GI50 [54]: > 100 µM (inactive)
GI50 [55]: > 100 µM (inactive)
